In PMC10819570, “Design, Synthesis, and Biological Evaluation of 2-Substituted Aniline Pyrimidine Derivatives as Potent Dual Mer/c-Met Inhibitors” (Molecules, 2024):
“Also recorded” adds a separate entry of the source.

Tests used:
HCT116 cells [1] = test: TUNEL apoptosis assay; format: cell-based; conditions: HCT116, 48 h treatment
Description: The number of TUNEL-positive cells was counted from 5 non-overlap random fields per group; DAPI (blue). Data are representative of three independent experiments.
The One Step TUNEL Apoptosis Assay Kit (Meilunbio, Dalian, China) was used for studying apoptosis in a dose-dependent manner. HCT116 cells (1.5 × 10^4 cells/well) were cultured in TC-treated glass coverslip-containing plates. […] Next, adhered cells were fixed with 4% paraformaldehyde and permeabilized with 0.3% Triton-X-100. TUNEL staining was performed according to the manufacturer’s instructions. The nuclei of cells were counterstained with the DAPI reagent. Images were taken using an Olympus fluorescence microscope. The ED50 for 18c was calculated with the program GraphPad PRISM 9.5. The assay was performed in triplicate, and each experiment was repeated three times.

hERG potassium currents = biological target: T1, hERG potassium currents (Homo sapiens, UniProt Q12809); test: hERG potassium currents assay (automated whole-cell patch clamp, CHO cells); format: cell-based; conditions: CHO cells stably expressing hERG, QPatch
T1 construct: expressed in transfected cells
Description: CHO cells stably expressing the transcript of hERG were investigated by the automated whole-cell patch clamp technique, using the QPatch system (Sophion, Ballerup, Denmark). The detailed procedures of the hERG potassium currents assay were described in our previous work. Each cell was received from six escalating concentrations. Each concentration was tested on at least three cells. The reference compound cisapride was applied at the end of the test compound addition.

MDA-MB-231 cells = test: Antiproliferation assay (CCK-8), MDA-MB-231; format: cell-based
Description: (§1) The antiproliferative activities of the compounds against HepG2, MDA-MB-231, and HCT116 cell lines were tested by the standard CCK-8 method. Cell viability was measured by Cell Counting Kit-8 (Meilunbio, Dalian, China) according to the manufacturer’s instructions. Briefly, cancer cells were seeded into 96-well plates at a density of 2.5 × 10^3 cells per well. […] Subsequently, CCK-8 solution was added into each well and incubated for an additional 2 h. The absorbance at 450 nm was determined in each well using the BioTek Synergy HTX microplate reader. The assay was performed in triplicate, and each experiment was repeated three times.

Mer kinase = biological target: T2, Mer kinase (Homo sapiens, UniProt Q12866); test: Mer kinase inhibitory activity assay (in vitro); format: biochemical; conditions: ATP 30 uM, enzyme 0.25 nM; means from three independent experiments
T2 sequence (Q12866 21-999): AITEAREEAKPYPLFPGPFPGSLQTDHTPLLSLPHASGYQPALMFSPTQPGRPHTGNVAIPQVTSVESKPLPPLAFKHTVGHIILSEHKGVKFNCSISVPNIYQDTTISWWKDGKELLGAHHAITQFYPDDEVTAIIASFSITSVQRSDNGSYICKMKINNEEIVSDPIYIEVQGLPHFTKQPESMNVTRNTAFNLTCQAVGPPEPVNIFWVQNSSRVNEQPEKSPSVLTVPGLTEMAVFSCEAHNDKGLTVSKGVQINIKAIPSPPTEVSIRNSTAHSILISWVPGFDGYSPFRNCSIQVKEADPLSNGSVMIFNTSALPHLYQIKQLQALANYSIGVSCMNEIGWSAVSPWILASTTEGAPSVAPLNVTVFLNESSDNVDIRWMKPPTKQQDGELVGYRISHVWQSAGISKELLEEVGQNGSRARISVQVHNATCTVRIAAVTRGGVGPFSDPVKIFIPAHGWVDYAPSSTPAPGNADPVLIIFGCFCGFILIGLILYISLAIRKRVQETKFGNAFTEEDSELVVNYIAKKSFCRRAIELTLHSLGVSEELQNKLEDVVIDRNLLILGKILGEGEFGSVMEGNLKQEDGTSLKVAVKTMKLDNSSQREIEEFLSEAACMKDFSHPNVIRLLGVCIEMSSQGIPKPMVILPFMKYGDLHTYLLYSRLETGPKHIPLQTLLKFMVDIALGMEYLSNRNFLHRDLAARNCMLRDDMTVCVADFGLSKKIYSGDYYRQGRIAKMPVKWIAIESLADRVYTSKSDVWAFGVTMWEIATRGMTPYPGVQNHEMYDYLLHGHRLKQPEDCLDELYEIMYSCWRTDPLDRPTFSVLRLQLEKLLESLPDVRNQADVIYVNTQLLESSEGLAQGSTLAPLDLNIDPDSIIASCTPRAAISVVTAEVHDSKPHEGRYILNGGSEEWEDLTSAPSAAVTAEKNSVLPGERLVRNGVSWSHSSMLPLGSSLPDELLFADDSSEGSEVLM
Description: The in vitro inhibition assays of all final compounds against Mer and c-Met kinase were performed by Shanghai Bioduro Biological Technology Co., Ltd. (Shanghai, China). We prepared 1× buffer: HEPES 50 mM, MgCl2 10 mM, EGTA 1 mM, NP-40 0.0001%, DTT 2 mM; compound dilution with DMSO. For test compounds, a 100 × final concentration solution was prepared. About 100 nL compounds were transferred to a 384-well plate by using the automated liquid handler. The final DMSO% in the assay is 1%. Enzyme stock solutions were diluted with 1× assay buffer to a concentration of 0.5 nM to make a 2× working solution. […] Substrate solutions were diluted with 1× assay buffer. About 5 μL mix or buffer was added manually to the assay plate (ATP final 30 uM and TK-Sub-Biotin final 2 uM) using a multichannel pipette, spun down at 1000 rpm, and centrifuged for 30 s. After incubating at 30 °C for 60 min, 10 μL of detection solution was added to each well of the assay, mixed briefly with a centrifuge, and equilibrated for another 60 min. The luminescence was recorded using Envision.

HCT116 cells [2] = test: Antiproliferation assay (CCK-8), HCT116; format: cell-based
Description: as §1, with “Cell” for “The antiproliferative activities of the compounds against HepG2, MDA-MB-231, and HCT116 cell lines were tested by the standard CCK-8 method. Cell”

HepG2 cells = test: Antiproliferation assay (CCK-8), HepG2; format: cell-based
Description: as §1

HCT116 cells [3] = test: Transwell migration assay; format: cell-based; conditions: 24 h
Description: Transwell migration assays were performed using Transwell® chamber inserts (Costar, Cambridge, MA, USA) with a porous polycarbonate membrane (8 μM pore size).
Transwell migration assays were performed using Transwell® chamber inserts (Costar, Cambridge, MA, USA) with a porous polycarbonate membrane ([…]). Briefly, 1.5 × 10^5 HCT116 cells were added in the top chamber with FBS-free culture media containing 0.2% BSA. A culture medium containing 15% FBS was added to the bottom chamber. […] After incubation for 24 h at 37 °C, the cells were fixed in methanol and stained with 0.1% crystal violet. The cells that had not migrated from the top surface of the filters were removed with cotton. Five randomly selected fields were captured by brightfield microscopy for each well. Migrated cells were quantitated by ImageJ (1.53c). Experiments were repeated at least three times in replicates.

[4] = Liver microsome stability assay; format: in vitro ADME; conditions: pH 7.4, human liver microsomes 0.2 mg/mL, test compound 1 μM, NADPH
Description: Stock solution (10 mM) of each of test compound was prepared in DMSO. The stock solution for each compound was then diluted into 200 μM with acetonitrile. Incubation mixtures were prepared in a total volume of 200 μL with final component concentrations as follows: 0.1 M PBS (pH 7.4), NADPH (2 mM), liver microsomes (0.2 mg/mL), and test compound (1 μM) or positive control. NAPDH was added after a 5 min preincubation of all other components at 37 °C, then pipette-mixed to achieve a homogenous suspension and immediately transferred 20 μL of the incubate as a 0 min sample to wells in a “Quenching” plate, followed by pipette-mixing. At 5, 15, 30, and 60 min, we pipette-mixed the incubate and serially transferred samples of 20 μL of the incubate per time point to wells in a separate “Quenching” plate, followed by pipette-mixing. In “Quenching” plates, 200 μL of acetonitrile was added with IS. The 96 wells were centrifuged at 4000 rpm for 10 min. Then 50 μL of supernatant was mixed with 50 μL of ddH2O and injected into the LC-MS/MS system for analysis.

[5] = ratio of IC50 values to cabozantinib

T1 sequence (Q12809 whole entry): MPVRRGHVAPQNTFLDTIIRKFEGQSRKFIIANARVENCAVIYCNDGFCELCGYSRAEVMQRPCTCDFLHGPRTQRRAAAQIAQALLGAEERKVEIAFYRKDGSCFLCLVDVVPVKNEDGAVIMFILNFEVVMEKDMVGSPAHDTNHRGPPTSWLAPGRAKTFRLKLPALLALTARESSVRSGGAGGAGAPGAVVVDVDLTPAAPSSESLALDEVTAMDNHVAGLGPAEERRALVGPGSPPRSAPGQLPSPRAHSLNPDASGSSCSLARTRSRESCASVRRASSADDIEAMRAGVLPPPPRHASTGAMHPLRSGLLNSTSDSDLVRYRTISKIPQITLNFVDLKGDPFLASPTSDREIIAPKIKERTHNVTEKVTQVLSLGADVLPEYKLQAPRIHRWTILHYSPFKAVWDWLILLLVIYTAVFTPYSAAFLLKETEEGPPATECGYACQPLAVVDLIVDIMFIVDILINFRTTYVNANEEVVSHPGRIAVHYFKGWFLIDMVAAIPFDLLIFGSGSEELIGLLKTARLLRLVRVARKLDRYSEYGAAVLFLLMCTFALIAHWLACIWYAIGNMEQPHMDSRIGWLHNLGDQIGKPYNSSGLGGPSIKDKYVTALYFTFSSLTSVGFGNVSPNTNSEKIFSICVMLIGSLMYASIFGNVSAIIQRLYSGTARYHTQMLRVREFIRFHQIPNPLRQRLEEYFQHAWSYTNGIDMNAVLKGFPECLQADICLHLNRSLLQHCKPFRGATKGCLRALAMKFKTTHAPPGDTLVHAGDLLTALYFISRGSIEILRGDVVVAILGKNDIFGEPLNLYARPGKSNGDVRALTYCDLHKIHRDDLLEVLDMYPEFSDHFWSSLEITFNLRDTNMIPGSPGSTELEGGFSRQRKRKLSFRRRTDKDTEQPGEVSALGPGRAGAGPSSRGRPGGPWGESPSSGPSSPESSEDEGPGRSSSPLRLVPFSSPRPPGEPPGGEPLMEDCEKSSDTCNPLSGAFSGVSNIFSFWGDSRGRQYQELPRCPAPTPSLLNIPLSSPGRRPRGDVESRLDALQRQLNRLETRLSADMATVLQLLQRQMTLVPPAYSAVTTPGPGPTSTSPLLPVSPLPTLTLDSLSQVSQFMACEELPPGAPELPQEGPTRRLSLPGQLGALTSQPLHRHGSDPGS

## CN1CCN(CC(=O)Nc2ccc(Nc3nccc(Oc4ccc(NC(=O)C5(C(=O)Nc6ccc(F)cc6)CC5)cc4)n3)cc2)CC1 [Compound 18c]
HCT116 cells [1]
  ED50 apoptosis (TUNEL-positive cells): 10.07 µM
hERG potassium currents
  IC50: > 40 µM
MDA-MB-231 cells; Homo sapiens, MDA-MB-231, 72 h, read-out: IC50 antiproliferative MDA-MB0231
  IC50: 8.9 µM
MDA-MB-231 cells; [5]
  Antiproliferative activity against MDA-MB-231, times higher than cabozantinib: 3.3 times
Mer kinase
  IC50: 18.5 ± 2.3 nM
HCT116 cells [2]; Homo sapiens, HCT-116, 72 h, read-out: IC50 antiproliferative HCT116
  IC50: 4.95 µM
HCT116 cells [2]; [5]
  Antiproliferative activity against HCT116, times higher than cabozantinib: 1.6 times
HepG2 cells; Homo sapiens, HepG2, 72 h, read-out: IC50 antiproliferative HepG2
  IC50: 6.63 µM
HepG2 cells; [5]
  Antiproliferative activity against HepG2, times lesser than cabozantinib: 3.8 times
HCT116 cells [3]
  Inhibition of HCT116 cell migration vs control: inhibited cell migration; also recorded: significantly inhibited
[4]; read-out: CL Human
  microsomal CLint at 1 μM: 60 µL/min/mg
[4]; read-out: T1/2 Human
  half-life at 1 μM: 53.1 min
